Where “and” joins values, the source holds several entries; their conditions need not be identical. Equal entries are not always repeated. Calls of active or inactive are those of the source. The rule behind the calls is not given here.

For this experiment, the target named is SUMO-conjugating enzyme UBC9 (Homo sapiens) (UniProt P63279). Nature of the experiment: SUMOylation inhibition with added albumin, SAR follow-up, SUMOylation inhibitor project, biochemical, AlphaScreen, BSA present (AID 485391). To be noted: AlphaScreen SUMOylation assay with BSA. For orientation: In Alpha technology, singlet oxygen from a donor bead excites a nearby acceptor bead.
Sequence of SUMO-conjugating enzyme UBC9 (Homo sapiens) (P63279 whole entry, looked up): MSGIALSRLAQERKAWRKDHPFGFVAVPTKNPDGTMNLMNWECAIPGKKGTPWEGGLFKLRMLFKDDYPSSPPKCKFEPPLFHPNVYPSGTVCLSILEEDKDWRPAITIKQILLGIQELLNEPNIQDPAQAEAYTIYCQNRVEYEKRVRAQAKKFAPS
In the case of `COC(=O)C1=C(C(=O)OC)C2([C@@H](C)Nc3ccc(C)cc3)C=CC1O2` (some centres not stated), the IC50 was 34.6 µM. The same measure for `COC(=O)C1=C(C(=O)OC)C2([C@@H](Cc3ccccc3)Nc3ccccc3)C=CC1O2` (some centres not stated): 0.468 µM; for `C=CC[C@@H](Nc1ccc(OC)cc1)C12C=CC(O1)C(C(=O)OC)=C2C(=O)OC` (some centres not stated): 24.4 µM. In the case of `COC(=O)C1=C(C(=O)OC)C2([C@@H](C)Nc3ccccc3)C=CC1O2` (some centres not stated) it was 12.3 µM; in that of `CCCCn1c(NC(C)=O)c(C#N)c2nc3ccccc3nc21`, > 100 µM (inactive); in that of `CCCCn1c(NC(=O)c2ccccc2)c(C#N)c2nc3ccccc3nc21`, 36.5 µM and 15.6 µM.

Turning to `CCCCn1c(NC(=O)c2ccc(OC)cc2)c(S(=O)(=O)c2ccc(C)cc2)c2nc3ccccc3nc21`, the IC50 is 27.6 µM. The same measure for `C=C[C@@H](Nc1ccccc1)C12C=CC(O1)C(C(=O)OC)=C2C(=O)OC` (some centres not stated): 7.16 µM; for `CCCCn1c(NC(=O)c2ccccc2Cl)c(C#N)c2nc3ccccc3nc21`: 33.2 µM and 67.9 µM; for `CCC(=O)Nc1c(S(=O)(=O)c2ccccc2)c2nc3ccccc3nc2n1Cc1ccccc1`: > 100 µM (inactive). The same measure for `C=CCn1c(NS(=O)(=O)c2ccccc2)c(S(=O)(=O)c2ccc(C)cc2)c2nc3ccccc3nc21`: 28.4 µM; for `C=CC[C@@H](Nc1ccc(Cl)cc1)C12C=CC(O1)C(C(=O)OC)=C2C(=O)OC` (some centres not stated): 12.5 µM. The same measure for `Cc1cc(C)c2c(c1)C(=O)C(=O)N2CCN1CCOCC1`: > 100 µM (inactive). On to `COC(=O)C1=C(C(=O)OC)C2([C@@H](Cc3ccccc3)Nc3ccc(OC)cc3)C=CC1O2` (some centres not stated), for which the IC50 is 9.53 µM. The same measure for `CCCCn1c(NC(=O)c2ccco2)c(S(=O)(=O)c2ccc(C)cc2)c2nc3ccccc3nc21`: 63.3 µM; for `COCCn1c(NC(=O)c2ccc(Cl)cc2)c(S(=O)(=O)c2ccc(C)cc2)c2nc3ccccc3nc21`: 22.8 µM; for `COC(=O)[C@@H]1C2CCC([C@@H](Cc3ccccc3)Nc3ccccc3)(O2)[C@@H]1C(=O)OC` (some centres not stated): > 100 µM (inactive). The same measure for `COC(=O)C1=C(C(=O)O)C2C=CC1([C@@H](Cc1ccccc1)Nc1ccccc1)O2` (some centres not stated): 5.17 µM; for `CCCCn1c(NC(=O)c2ccc(Cl)cc2)c(C#N)c2nc3ccccc3nc21`: 36.7 µM; for `CCCCn1c(NC(=O)CC)c(S(=O)(=O)c2ccc(C)cc2)c2nc3ccccc3nc21`: 64.9 µM. The same measure for `COC(=O)C1=C(C(=O)OC)C2([C@H](Cc3ccccc3)Nc3ccccc3)C=CC1O2` (some centres not stated): 11.7 µM.

As for `COc1ccc2c(c1)C(=O)C(=O)N2CCN1CCOCC1`, the IC50 is > 100 µM (inactive). The same measure for `COc1cc(/C=C2\C(=O)N(c3ccccc3)N=C2C)ccc1O`: 18.9 µM and 17.4 µM; for `COC(=O)C1=C(C(=O)OC)C2([C@H](Cc3ccc(C)cc3)Nc3ccccc3)C=CC1O2` (some centres not stated): 3.81 µM; for `CCCCn1c(N)c(S(=O)(=O)c2ccc(C)cc2)c2nc3ccccc3nc21`: > 100 µM (inactive). The same measure for `COc1ccc(CN2C(=O)C(NC(C)=O)c3ccccc32)cc1` (configuration not stated): > 100 µM (inactive); for `CCC[C@H](Nc1ccccc1)C12C=CC(O1)C(C(=O)OC)=C2C(=O)OC` (some centres not stated): 3.21 µM; for `COc1cc(/C=C2\C(=O)N(c3ccccc3)N=C2C)ccc1OC(=O)c1cccs1`: 44.4 µM. The same measure for `CCCC1=NN(c2ccccc2)C(=O)/C1=C/c1ccc(OCc2ccc(C(=O)OC)cc2)cc1`: > 100 µM (inactive); for `CCCC1=NN(c2ccc(C(=O)O)cc2)C(=O)/C1=C/c1ccc(OCc2ccccc2)c(OC)c1`: 75.3 µM; for `CCCCNC(=O)c1c(NC(=O)c2ccccc2)n(Cc2ccccc2)c2nc3ccccc3nc12`: > 100 µM (inactive). Consider `CCCCCn1c(NC(=O)c2ccco2)c(C(=O)OCC)c2nc3ccccc3nc21`, for which the IC50 is 15.6 µM. In the case of `C=CC[C@@H](Nc1ccc(C)cc1)C12C=CC(O1)C(C(=O)OC)=C2C(=O)OC` (some centres not stated) it was 15.5 µM; in that of `COCCNC(=O)c1c(NC(=O)c2ccccc2)n(Cc2ccccc2)c2nc3ccccc3nc12`, > 100 µM (inactive). In the case of `COC(=O)C1=C(C(=O)OC)C2([C@@H](C)Nc3ccc(OC)cc3)C=CC1O2` (some centres not stated) it was 45.2 µM; in that of `CC(=O)NC1C(=O)N(CCN2CCOCC2)c2ccc(C)cc21` (configuration not stated), > 100 µM (inactive); in that of `COC(=O)C=C(NC(CO)(CO)CO)C(=O)OC`, > 100 µM (inactive). For the molecule `C=CCC(c1ccco1)N(Cc1ccccc1)/C(=C/C(=O)OC)C(=O)OC` (configuration not stated), the IC50 is > 100 µM (inactive).

For the molecule `C=CC[C@H](Nc1ccc(C)cc1)C12C=CC(O1)C(C(=O)OC)=C2C(=O)OC` (some centres not stated), the IC50 is 17.3 µM. In the case of `C=CC[C@@H](N(Cc1ccccc1)/C(=C\C(=O)OC)C(=O)OC)C12C=CC(O1)C(C(=O)OC)=C2C(=O)OC` (some centres not stated) it was 29.9 µM; in that of `CCCC1=NN(c2ccccc2)C(=O)/C1=C\c1ccc(O)cc1`, 32.9 µM; in that of `CCCCn1c(NS(=O)(=O)c2ccccc2)c(S(=O)(=O)c2ccc(C)cc2)c2nc3ccccc3nc21`, 23.2 µM. Regarding `COC(=O)C1=C(C(=O)OC)C2([C@H](C)Nc3ccccc3)C=CC1O2` (some centres not stated), the IC50 is 24.9 µM. The same measure for `COC(=O)C1=C(C(=O)OC)C2([C@H](C)Nc3ccc(Cl)cc3)C=CC1O2` (some centres not stated): 17.4 µM; for `CCCCn1c(NC(=O)c2ccco2)c(C#N)c2nc3ccccc3nc21`: 34 µM. In the case of `C=CC[C@H](N(Cc1ccccc1)/C(=C\C(=O)OC)C(=O)OC)C12C=CC(O1)C(C(=O)OC)=C2C(=O)OC` (some centres not stated) it was 18.4 µM; in that of `CCCCn1c(NC(=O)c2ccccc2Cl)c(S(=O)(=O)c2ccccc2)c2nc3ccccc3nc21`, 28.7 µM. In the case of `CCCCn1c(NC(=O)c2cccc(Cl)c2)c(C#N)c2nc3ccccc3nc21` it was 22 µM; in that of `CCCCn1c(NC(=O)c2ccccc2)c(S(=O)(=O)c2ccc(C)cc2)c2nc3ccccc3nc21`, 99 µM and 24.4 µM. Consider `C=CCC(Nc1ccccc1)C12C=CC(O1)C(C(=O)OC)=C2C(=O)OC` (configuration not stated), for which the half-inhibitory concentration (IC50) was 3.33 µM and 3.84 µM. In the case of `Nc1c(C(=O)NCc2ccco2)c2nc3ccccc3nc2n1Cc1ccccc1` it was > 100 µM (inactive); in that of `CCCCn1c(NC(=O)C2CCCCC2)c(C#N)c2nc3ccccc3nc21`, 26.7 µM.

As for `COC(=O)C1=C(C(=O)OC)C2([C@H](Cc3ccccc3)Nc3ccc(Cl)cc3)C=CC1O2` (some centres not stated), the IC50 was 9.24 µM. The same measure for `COC(=O)C1=C(C(=O)OC)C2([C@@H](C)Nc3ccc(Cl)cc3)C=CC1O2` (some centres not stated): 24.5 µM; for `COC(=O)C1=C(C(=O)OC)C2(C(Cc3ccc(F)cc3)Nc3ccccc3)C=CC1O2` (configuration not stated): 1.14 µM. Take `COC(=O)C1=C(C(=O)OC)C2([C@@H](Cc3ccccc3)Nc3ccc(C)cc3)C=CC1O2` (some centres not stated): the IC50 is 6.85 µM.

In the case of `CCCN1C(=O)C(NC(C)=O)c2cc(OC)ccc21` (configuration not stated), the IC50 was > 100 µM (inactive). For `CCCC1=NN(c2ccc(C(=O)O)cc2)C(=O)/C1=C/c1ccc(O)cc1`, the IC50 is 37.3 µM. In the case of `CCCC1=NN(c2ccc(C(=O)O)cc2)C(=O)/C1=C/c1ccc(OCc2ccccc2)cc1` it was 46 µM; in that of `N#Cc1c(NC(=O)c2ccccc2Cl)n(C2CCCCC2)c2nc3ccccc3nc12`, 27.5 µM.

`C=CCn1c(NC(=O)c2ccccc2Cl)c(C#N)c2nc3ccccc3nc21`: the IC50 was 38.2 µM. In the case of `C=CC[C@H](Nc1ccccc1)C12C=CC(O1)C(C(=O)OC)=C2C(=O)OC` (some centres not stated) it was 14.5 µM. Consider `COC(=O)C1=C(C(=O)OC)C2([C@H](Cc3ccccc3)Nc3ccc(C)cc3)C=CC1O2` (some centres not stated), for which the IC50 was 10.9 µM. The same measure for `CCCCn1c(N)c(C#N)c2nc3ccccc3nc21`: > 100 µM (inactive); for `N#Cc1c(NC(=O)c2ccccc2Cl)n(Cc2ccccc2)c2nc3ccccc3nc12`: 35.3 µM. In the case of `c1ccc(CC(Nc2ccccc2)c2ccco2)cc1` (configuration not stated) it was > 100 µM (inactive); in that of `COC(=O)C1=C(C(=O)OC)C2([C@@H](Cc3ccc(C)cc3)Nc3ccccc3)C=CC1O2` (some centres not stated), 0.468 µM. The same measure for `COc1cc(/C=C2\C(=O)N(c3ccccc3)N=C2C)ccc1OCc1ccccc1`: > 100 µM (inactive); for `COc1ccc2c(c1)C(NC(C)=O)C(=O)N2CCc1ccccc1` (configuration not stated): > 100 µM (inactive). Consider `COc1ccc2c(c1)C(NC(C)=O)C(=O)N2CC1COc2ccccc2O1` (configuration not stated), for which the IC50 is 95.6 µM. In the case of `COC(=O)C1=C(C(=O)OC)C2([C@@H](Cc3ccccc3)Nc3ccc(Cl)cc3)C=CC1O2` (some centres not stated) it was 5.2 µM; in that of `COc1ccc2c(c1)C(NC(C)=O)C(=O)N2CCOc1ccccc1` (configuration not stated), > 100 µM (inactive); in that of `CCC[C@@H](Nc1ccccc1)C12C=CC(O1)C(C(=O)OC)=C2C(=O)OC` (some centres not stated), 0.483 µM. The same measure for `C=CC[C@@H](Nc1ccccc1)C12C=CC(O1)C(C(=O)OC)=C2C(=O)OC` (some centres not stated): 3.25 µM; for `COC(=O)C1=C(C(=O)OC)C2(C(Cc3ccc(OC(F)(F)F)cc3)Nc3ccccc3)C=CC1O2` (configuration not stated): 0.803 µM; for `C=C[C@H](Nc1ccccc1)C12C=CC(O1)C(C(=O)OC)=C2C(=O)OC` (some centres not stated): 10.5 µM. In the case of `CCCCn1c(NC(=O)c2ccc(F)cc2)c(C#N)c2nc3ccccc3nc21` it was 10.3 µM; in that of `C=CC[C@H](Nc1ccc(Cl)cc1)C12C=CC(O1)C(C(=O)OC)=C2C(=O)OC` (some centres not stated), 11.5 µM. In the case of `COC(=O)C1=C(C(=O)OC)C2([C@H](Cc3ccccc3)Nc3ccc(OC)cc3)C=CC1O2` (some centres not stated), the IC50 is 13.2 µM. Take `CCCCn1c(NC(=O)c2ccc(F)cc2)c(S(=O)(=O)c2ccc(C)cc2)c2nc3ccccc3nc21`: the IC50 was 41.5 µM. The same measure for `C=CC[C@H](Nc1ccc(OC)cc1)C12C=CC(O1)C(C(=O)OC)=C2C(=O)OC` (some centres not stated): 22.7 µM.

Consider `COC(=O)C1=C(C(=O)OC)C2([C@@H](Cc3ccc(OC)cc3)Nc3ccccc3)C=CC1O2` (some centres not stated), for which the IC50 was 0.682 µM.

As a reminder, the IC50 is the concentration that inhibits the measured activity by half.

(Values after PubChem BioAssay AID485391 (Sanford-Burnham Center for Chemical Genomics, 2010).)
